# Key:
# [1] = system: SK-MEL-28 mitochondria; conditions: human, 48 h, 100 µM
# Protocol: Cells were centrifuged, pelleted, flash frozen and stored at −80° C. until the mitochondria were isolated. Cell pellets were thawed, resuspended and ruptured in Dounce homogenizer. The homogenate was centrifuged and mitochondria were isolated using reagents and the protocol recommended by the Mitochondria Isolation kit for Cultured cells (MitoSciences, Eugene Oreg., Cat #MS852). The mitochondrial fraction was aliquoted and stored at −80° C.
# Analysis was by LC-MS/MS on a Waters Quattro II triple quadrupole mass spectrometer with a Prism RP 1×100 mm, 5 μm particle size column (Keystone Scientific). Isocratic elution with 4 mM ammonium formate in 20% isopropyl alcohol 80% methanol at a flow rate of 50 μl/min. Ten μl of each sample was injected.
# [2] = system: SKMEL-28 cells; test: 2-D gel electrophoresis proteomic analysis; type: cell-based
# Protocol: Protein was isolated from the treated and control flask after 4, 8, 12, and 24 hours. For isolation of proteins, cells were washed three times with 5 mL of ice cold PBS at a pH of 7.4. The cells were then scraped in 3 mL of PBS, pelleted by centrifuge, and re-suspended in a lysis buffer at pH 7.4 (80 mM TRIS-HCl, 1% SDS, with protease and phosphotase inhibitors). Protein concentrations were quantified using the BCA method.
# The gels were run in duplicate.
# The first experimental set processed and evaluated by Western blot and 2-D gel electrophoresis was the skin cancer cell line SKMEL-28.
# A comparative analysis of 943 spots across all twenty-four gels was performed, comparing the control sample against all of the treated samples. The analysis included the identification of spot changes over the time course due to increase, decrease, or post-translational modification.
# The analysis found thirty-two statistically significant differential spot changes. […] The characterized peptides were searched against protein databases with Mascot and MSRAT software analysis to identify the protein (Table 2).
# [3] = system: Succinate Dehydrogenase (SDH) Subunit B; test: Western blot, Succinate Dehydrogenase B in mitochondrial preparations; type: cell-based; conditions: mitochondrial preparations of cancer cells
# Protocol: The above blots were stripped by incubating for 30 minutes with methanol, followed by two 10 minute washes with TBS-T, then 30 minutes of incubation with Stripping buffer at 50 deg C., and followed by two washes with 100 ml or more of TBS-T for 30′ each. The blots were scanned in laser scanner to check for complete stripping. The blots were activated with methanol for 5 seconds, washed with water for 5 minutes, and TBST for 15 minutes. The blots were blocked for 1 hour with 5% blocking reagent in TBS-T at room temperature and then washed 3 times with TBS-T (1X−15′; 2X5′ each) and probed with the primary antibody for PKM2, SDHB or SDHC in 5% BSA in TBS-T by incubation overnight at 4 deg C. with gentle shaking. The primary antibody for SDHC (ABNOVA H00006391-M12; antimouse) was at 1:500 dilution. The primary antibody for SDHB was from Abcam ab4714-200; antimouse; at 1:1000 dilution. The primary antibody for Pyruvate Kinase M2 (PKM2) was from Novus Biologicals H00005315-D0IP; antirabbit; at 1:500 dilution. After incubation with primary antibodies, the membranes were washed 3 times with TBS-T (1X−15′; 2X5′ each) and probed with the secondary antibody (SDHB & C antimouse; and PKM2 antirabbit; 1:10,000 dilution) for 1 h on the orbital tilting shaker at room temperature. […]
# [4] = system: various cell types; test: Induction of early apoptosis in oncogenic and normal cell types (Bcl-2, caspase, annexin V); type: cell-based
# Protocol: CoQ10 treatment of cells was carried out as described in detail below in the Materials and Methods. Induction of apoptosis was assessed in the treated cells by monitoring indicators of early apoptosis (e.g., Bcl-2 expression, caspase activation and by using annexin V assays) as described below. From these studies, the minimal CoQ10 dosage, e.g., concentration of CoQ10 and time of treatment, required to induce apoptosis in the panel of cell lines was determined.
# Cells were cultured in T-75 flasks with relevant medium supplemented with 10% Fetal Bovine Serum (FBS), 1% PSA (penicillin, streptomycin, amphotericin B) (Invitrogen and Cellgro) in a 37° C. incubator with 5% CO2 levels until 70-80% confluence was reached. To harvest cells for treatment, flasks were primed with 1 mL Trypsin, aspirated, trypsinized with an additional 3 mL, and incubated at 37° C. for 3-5 minutes. Cells were then neutralized with an equal volume of media and the subsequent solution was centrifuged at […] for 8 minutes. The supernatant was aspirated and the cells were resuspended with 8.5 ml of media. A mixture of 500 ul of the resuspension and 9.5 ml of […] was read twice by a coulter counter and the appropriate number of cells to be seeded into each dish was determined. Control and concentration ranging from 0-200 μM groups were examined in triplicate. From a 500 μM CoQ-10 stock solution, serial dilutions were performed to achieve desired experimental concentration in appropriate dishes. Dishes were incubated in a 37° C. incubator with 5% CO2 levels for 0-72 hours depending on cell type and experimental protocol.
# The volume of sample to load per well was determined using the raw mean concentration of protein obtained from the BCA protein assay. Approximately 30-60 μg of protein were loaded for each treatment time point. Proteins were run in triplicate on 12% Tris-HCl ready gels (Bio-Rad) or hand cast gels in 1× running buffer at 85 and 100 volts. Proteins were then transferred onto nitrocellulose paper for an hour at 100 volts, and blocked for another hour in a 5% milk solution. Membranes were placed in primary antibody (1 uL Ab:1000 uL TBST) (Cell Signaling) overnight at […] The following day, membranes were washed three times for ten minutes each with Tris-Buffered Saline Tween-20 (TBST), and secondary antibody (anti-rabbit; 1 uL Ab: 1000 uL TBST) was applied for an hour at […] Membranes were washed again three times for ten minutes with TBST and chemoluminescence using Pico or Femto substrate was completed (Pierce). Membranes were then developed at time intervals that produced the best visual results. After developing, membranes were kept in TBST at […] until Actin levels could be measured.
# Cells were washed twice in PBS10× and resuspended in Binding Buffer (0.1 M HEPES, pH 7.4; 1.4 M NaCl; 25 mM CaCl2). Samples of 100 μl were added to a culture tube with 5 μl of annexin-PE dye or […]. The cells were mixed and incubated without light at room temperature for 15 minutes. After which, 400 μl of 1× Binding Buffer was added to each sample and they were subjected to analysis by flow cytometry.
# [5] = system: MCF-7 breast cancer cells; test: OCR and ECAR, SeaHorse XF analyzer; type: cell-based
# Text: (SeaHorse Biosciences Inc, North Billerica, Mass.).
# In contrast, cancer cells (e.g., MCF-7, PaCa-2) are inherently primed to culture at higher levels of glucose compared to normal cells due to their glycolytic phenotype for maintenance in culture.
# [6] = system: SCC cells; test: Real-time PCR Heat Shock Protein Array; type: cell-based
# Text: The control cells were untreated cells.
# Heat Shock Arrays were run for SCC cells and the data of regulated genes is summarized below in Table 13.
# [7] = 100 μM Q10, Down regulated at 6 hours
structure (smiles),measurement,setting,value
"COC1=C(OC)C(=O)C(C/C=C(\C)CC/C=C(\C)CC/C=C(\C)CC/C=C(\C)CC/C=C(\C)CC/C=C(\C)CC/C=C(\C)CC/C=C(\C)CC/C=C(\C)CCC=C(C)C)=C(C)C1=O [Q10, Coenzyme Q10]",Q10H2,[1],0.28 ng/Sample
same,increase in the levels of Q10H2,[1],3 fold
same,Transaldolase 1 level,[2],decrease of Transaldolase 1
same,SDH protein levels,[3],increase SDH protein levels
same,"Indication of Early apoptosis (Bcl-2, annexin V, or caspase activation)","[4]; BONE: Ewing's sarcoma (NCI), wrapped cell reads Extremely strong",Extremely
same,"Indication of Early apoptosis (Bcl-2, annexin V, or caspase activation)",[4]; BREAST: Mammary fiboblasts: 184A1 and 184B5) (Lawrence Berkeley),None
same,"Indication of Early apoptosis (Bcl-2, annexin V, or caspase activation)",[4]; SKIN: Melanoma (Skmel 2),Very Strong
same,"Indication of Early apoptosis (Bcl-2, annexin V, or caspase activation)",[4]; SKIN: Melanoma (Skmel 28),Strong
same,"Indication of Early apoptosis (Bcl-2, annexin V, or caspase activation)","[4]; SKIN: SCC, Squamous cell carcinoma",Very Strong
same,dose dependent response of cancer vs control cell lines,"[4]; keratinocytes, melanocytes vs SK-MEL-28, SK-MEL-2, SCC, PaCa2, HEP-G2, various levels",induction of apoptosis and cell death in the cancer cells only
same,efficacy of treatment by cell type,[4]; oncogenic cell lines of differing aggressiveness,greater in cell types that exhibited increased oncogenicity and/or greater metastatic potential
same,OCR values,[5],consistent reduction in OCR values
same,DNAJB5 Regulation,[6]; [7],Down
same,DNAJB13 Regulation,[6]; [7],Down
same,DNAJC4 Regulation,[6]; [7],Down
same,DNAJC5B Regulation,[6]; [7],Down
same,DNAJC12 Regulation,[6]; [7],Down
same,CCT6B Regulation,"[6]; 100 μM Q10, Down regulated at 24 hours",Down
same,DNAJA1 Regulation,"[6]; 100 μM Q10, at 6 hours",Up regulated
same,HSPA8 Regulation,"[6]; 100 μM Q10, at 6 hours",Up regulated
same,HSPH1 Regulation,"[6]; 100 μM Q10, at 6 hours",Up regulated

# — US10519504B2, “Methods for treatment of oncological disorders using epimetabolic shifters, multidimensional intracellular molecules, or environmental influencers” (Berg LLC, priority 2009, dated 2019)
